{"source": "paper PMC10325911", "about": "(2023)", "key": {"[1]": {"system": "Bom17 (DNA, G4) GGTTAGGTTAGGTTAGG", "experiment": "CD melting", "details": "K+ 5 mM; Tris 10 mM pH 7.2, DBI 10 μM, oligonucleotide 2 μM, DMSO 2%"}, "[2]": {"system": "4G3U3 (RNA, G4) GGGUUUGGGUUUGGGUUUGGG", "experiment": "CD melting", "details": "K+ 5 mM; Tris 10 mM pH 7.2, DBI 10 μM, oligonucleotide 2 μM, DMSO 2%"}, "[3]": {"system": "c-MYC Pu22 (DNA, G4) TGAGGGTGGGTAGGGTGGGTAA", "experiment": "CD melting", "details": "K+ 5 mM; Tris 10 mM pH 7.2, DBI 10 μM, oligonucleotide 2 μM, DMSO 2%"}, "[4]": {"system": "ds-DNA HIF-1α (DNA, duplex) GCGCGGGGAGGGGAGAGGGGGCGGGAGCGCG/CGCGCTCCCGCCCCCTCTCCCCTCCCCGCGC", "experiment": "CD melting", "details": "K+ 5 mM; Tris 10 mM pH 7.2, DBI 10 μM, oligonucleotide 2 μM, DMSO 2%"}, "[5]": {"system": "c-MYC Pu22 (DNA, G4) TGAGGGTGGGTAGGGTGGGTAA", "experiment": "fluorescence polarization titration", "details": "K+ 100 mM; Tris 50 mM pH 7.2, DBI 1 μM, DMSO 1%, DNA 0-10 μM"}, "[6]": {"system": "mut HIF-1α (DNA, single strand) GCGCGGCGAGCGGAGAGGGCGCGCGAGCGCG", "experiment": "fluorescence polarization titration", "details": "K+ 100 mM; Tris 50 mM pH 7.2, DBI 1 μM, DMSO 1%, DNA up to 10 μM"}, "[7]": {"system": "sc ds-RNA (RNA, duplex) CAAUCGGAUCGAAUUCGAUCCGAUUG", "experiment": "fluorescence polarization titration", "details": "no or very weak binding response, group statement for all four RNAs"}, "[8]": {"system": "4G3U3 (RNA, G4) GGGUUUGGGUUUGGGUUUGGG", "experiment": "fluorescence polarization titration", "details": "no or very weak binding response, group statement for all four RNAs"}, "[9]": {"system": "sc ds-DNA (DNA, duplex) CAATCGGATCGAATTCGATCCGATTG", "experiment": "fluorescence polarization titration", "details": "K+ 100 mM; Tris 50 mM pH 7.2, DBI 1 μM, DMSO 1%, DNA up to 10 μM"}, "[10]": {"system": "C-rich HIF-1α (DNA, single strand) CGCGCTCCCGCCCCCTCTCCCCTCCCCGCGC", "experiment": "fluorescence polarization titration", "details": "K+ 100 mM; Tris 50 mM pH 7.2, DBI 1 μM, DMSO 1%, DNA up to 10 μM"}, "[11]": {"system": "Tel-22 (DNA, G4) AGGGTTAGGGTTAGGGTTAGGG", "experiment": "CD melting", "details": "K+ 5 mM; Tris 10 mM pH 7.2, DBI 10 μM, oligonucleotide 2 μM, DMSO 2%"}, "[12]": {"system": "HIF-1α (DNA, G4) GCGCGGGGAGGGGAGAGGGGGCGGGAGCGCG", "experiment": "fluorescence polarization titration", "details": "K+ 100 mM; Tris 50 mM pH 7.2, DBI 1 μM, DMSO 1%, DNA 0-10 μM"}, "[13]": {"system": "c-MYC Pu24T (DNA, G4) TGAGGGTGGTGAGGGTGGGGAAGG", "experiment": "CD melting", "details": "K+ 5 mM; Tris 10 mM pH 7.2, DBI 10 μM, oligonucleotide 2 μM, DMSO 2%"}, "[14]": {"system": "FMR1 (RNA, G4) GGAGGGGGAGGAAGAGGACAAGGAGGAAGAGG", "experiment": "fluorescence polarization titration", "details": "no or very weak binding response, group statement for all four RNAs"}, "[15]": {"system": "sc ds-DNA (DNA, duplex) CAATCGGATCGAATTCGATCCGATTG", "experiment": "CD melting", "details": "K+ 5 mM; Tris 10 mM pH 7.2, DBI 10 μM, oligonucleotide 2 μM, DMSO 2%"}, "[16]": {"system": "TERRA (RNA, G4) UUAGGGUUAGGGUUAGGGUUAGGG", "experiment": "fluorescence polarization titration", "details": "no or very weak binding response, group statement for all four RNAs"}}, "data": [{"smiles": "CCC(CC)n1c(=O)c2ccc3sc4ccc5ccccc5c4c4ccc(c1=O)c2c34", "values": [{"measurement": "ΔTm", "setting": "[1]", "result": -0.1, "unit": "°C"}, {"measurement": "ΔTm", "setting": "[2]", "result": 0.6, "unit": "°C"}, {"measurement": "ΔTm", "setting": "[3]", "result": 7.3, "unit": "°C"}, {"measurement": "ΔTm", "setting": "[4]", "result": 2, "unit": "°C"}, {"measurement": "Ka", "setting": "[5]", "result": "4.5 × 10^5 ± 1.1 M^−1"}, {"measurement": "binding", "setting": "[6]", "result": "no"}, {"measurement": "binding", "setting": "[7]", "result": "weak"}, {"measurement": "binding", "setting": "[8]", "result": "weak"}, {"measurement": "binding", "setting": "[9]", "result": "no"}, {"measurement": "binding", "setting": "[10]", "result": "no"}, {"measurement": "ΔTm", "setting": "[11]", "result": -1.3, "unit": "°C"}, {"measurement": "Ka", "setting": "[12]", "result": "4.6 × 10^5 ± 0.5 M^−1"}, {"measurement": "ΔTm", "setting": "[13]", "result": 3.3, "unit": "°C"}, {"measurement": "binding", "setting": "[14]", "result": "weak"}, {"measurement": "ΔTm", "setting": "[15]", "result": -1.5, "unit": "°C"}, {"measurement": "binding", "setting": "[16]", "result": "weak"}]}]}
